Measurements: ChEMBL document CHEMBL1127066, “Discovery and structure-activity relationship of a series of 1-carba-1-dethiacephems exhibiting activity against methicillin-resistant Staphylococcus aureus” (J Med Chem, 1993)

System: Escherichia coli
Assay: In vitro evaluation of antimicrobial activity against Escherichia coli EC14 strain
Type: functional

In order of rising MIC:
1. Nc1nc(/C(=N\OCCF)C(=O)N[C@@H]2C(=O)N3C(C(=O)[O-])=C(Sc4cccc[n+]4[O-])CC[C@H]23)cs1.[Na+]  0.125 mg/L
2. Nc1nc(/C(=N\OCCF)C(=O)N[C@@H]2C(=O)N3C(C(=O)[O-])=C(Sc4nc(-c5ccncc5)cs4)CC[C@H]23)cs1.[Na+]  0.25 mg/L
3. Cc1cnc(SC2=C(C(=O)[O-])N3C(=O)[C@@H](NC(=O)/C(=N/OCCF)c4csc(N)n4)[C@H]3CC2)s1.[Na+]  0.5 mg/L

System: Enterobacter cloacae
Assay: In vitro evaluation of antimicrobial activity against Enterobacter cloacae EB5 strain
Type: functional

In order of rising MIC:
1. Nc1nc(/C(=N\OCCF)C(=O)N[C@@H]2C(=O)N3C(C(=O)[O-])=C(Sc4cccc[n+]4[O-])CC[C@H]23)cs1.[Na+]  2 mg/L
2. Nc1nc(/C(=N\OCCF)C(=O)N[C@@H]2C(=O)N3C(C(=O)[O-])=C(Sc4nc(-c5ccncc5)cs4)CC[C@H]23)cs1.[Na+]  2 mg/L
3. Cc1cnc(SC2=C(C(=O)[O-])N3C(=O)[C@@H](NC(=O)/C(=N/OCCF)c4csc(N)n4)[C@H]3CC2)s1.[Na+]  2 mg/L

System: Haemophilus influenzae
Assay: In vitro antimicrobial activity against Haemophilus influenzae C.L. strain
Type: functional

Going from `Nc1nc(/C(=N\OCCF)C(=O)N[C@@H]2C(=O)N3C(C(=O)[O-])=C(Sc4cccc[n+]4[O-])CC[C@H]23)cs1.[Na+]` to `Cc1cnc(SC2=C(C(=O)[O-])N3C(=O)[C@@H](NC(=O)/C(=N/OCCF)c4csc(N)n4)[C@H]3CC2)s1.[Na+]`, the MIC falls from 0.015 mg/L to under 0.008 mg/L.

With `Nc1nc(/C(=N\OCCF)C(=O)N[C@@H]2C(=O)N3C(C(=O)[O-])=C(Sc4nc(-c5ccncc5)cs4)CC[C@H]23)cs1.[Na+]` the MIC was 0.03 mg/L.

System: Klebsiella
Assay: In vitro antimicrobial activity against Klebsiella X26 strain
Type: functional

In order of rising MIC:
1. Nc1nc(/C(=N\OCCF)C(=O)N[C@@H]2C(=O)N3C(C(=O)[O-])=C(Sc4nc(-c5ccncc5)cs4)CC[C@H]23)cs1.[Na+]  0.03 mg/L
2. Cc1cnc(SC2=C(C(=O)[O-])N3C(=O)[C@@H](NC(=O)/C(=N/OCCF)c4csc(N)n4)[C@H]3CC2)s1.[Na+]  0.03 mg/L
3. Nc1nc(/C(=N\OCCF)C(=O)N[C@@H]2C(=O)N3C(C(=O)[O-])=C(Sc4cccc[n+]4[O-])CC[C@H]23)cs1.[Na+]  0.06 mg/L

System: Pseudomonas aeruginosa
Assay: Antimicrobial activity against Pseudomonas PS18 strain
Type: functional

First: Nc1nc(/C(=N\OCCF)C(=O)N[C@@H]2C(=O)N3C(C(=O)[O-])=C(Sc4cccc[n+]4[O-])CC[C@H]23)cs1.[Na+]
Second: Cc1cnc(SC2=C(C(=O)[O-])N3C(=O)[C@@H](NC(=O)/C(=N/OCCF)c4csc(N)n4)[C@H]3CC2)s1.[Na+]
The MIC of the first is 4-fold higher: 128 mg/L for the first, 32 mg/L for the second.

`Nc1nc(/C(=N\OCCF)C(=O)N[C@@H]2C(=O)N3C(C(=O)[O-])=C(Sc4nc(-c5ccncc5)cs4)CC[C@H]23)cs1.[Na+]` was tested, and the MIC was over 128 mg/L.

System: Pseudomonas aeruginosa
Assay: In vitro antimicrobial activity against Pseudomonas X239 strain
Type: functional

Compared with `Nc1nc(/C(=N\OCCF)C(=O)N[C@@H]2C(=O)N3C(C(=O)[O-])=C(Sc4cccc[n+]4[O-])CC[C@H]23)cs1.[Na+]`, `Cc1cnc(SC2=C(C(=O)[O-])N3C(=O)[C@@H](NC(=O)/C(=N/OCCF)c4csc(N)n4)[C@H]3CC2)s1.[Na+]` is lower in MIC: over 128 mg/L for the first, 64 mg/L for the second.

With `Nc1nc(/C(=N\OCCF)C(=O)N[C@@H]2C(=O)N3C(C(=O)[O-])=C(Sc4nc(-c5ccncc5)cs4)CC[C@H]23)cs1.[Na+]` the MIC was over 128 mg/L.

System: Staphylococcus epidermidis
Assay: In vitro antimicrobial activity against Staphylococcus epidermidis 222 strain
Type: functional

In order of rising MIC:
1. Nc1nc(/C(=N\OCCF)C(=O)N[C@@H]2C(=O)N3C(C(=O)[O-])=C(Sc4nc(-c5ccncc5)cs4)CC[C@H]23)cs1.[Na+]  0.5 mg/L
2. Cc1cnc(SC2=C(C(=O)[O-])N3C(=O)[C@@H](NC(=O)/C(=N/OCCF)c4csc(N)n4)[C@H]3CC2)s1.[Na+]  1 mg/L
3. Nc1nc(/C(=N\OCCF)C(=O)N[C@@H]2C(=O)N3C(C(=O)[O-])=C(Sc4cccc[n+]4[O-])CC[C@H]23)cs1.[Na+]  2 mg/L

System: Staphylococcus epidermidis
Assay: In vitro antimicrobial activity against Staphylococcus epidermidis 270 strain
Type: functional

In order of rising MIC:
1. Nc1nc(/C(=N\OCCF)C(=O)N[C@@H]2C(=O)N3C(C(=O)[O-])=C(Sc4nc(-c5ccncc5)cs4)CC[C@H]23)cs1.[Na+]  2 mg/L
2. Cc1cnc(SC2=C(C(=O)[O-])N3C(=O)[C@@H](NC(=O)/C(=N/OCCF)c4csc(N)n4)[C@H]3CC2)s1.[Na+]  4 mg/L
3. Nc1nc(/C(=N\OCCF)C(=O)N[C@@H]2C(=O)N3C(C(=O)[O-])=C(Sc4cccc[n+]4[O-])CC[C@H]23)cs1.[Na+]  8 mg/L

System: Staphylococcus aureus
Assay: In vitro antimicrobial activity against Staphylococcus aureus S13E strain
Type: functional

In order of falling MIC:
1. Nc1nc(/C(=N\OCCF)C(=O)N[C@@H]2C(=O)N3C(C(=O)[O-])=C(Sc4cccc[n+]4[O-])CC[C@H]23)cs1.[Na+]  64 mg/L
2. Cc1cnc(SC2=C(C(=O)[O-])N3C(=O)[C@@H](NC(=O)/C(=N/OCCF)c4csc(N)n4)[C@H]3CC2)s1.[Na+]  32 mg/L
3. Nc1nc(/C(=N\OCCF)C(=O)N[C@@H]2C(=O)N3C(C(=O)[O-])=C(Sc4nc(-c5ccncc5)cs4)CC[C@H]23)cs1.[Na+]  8 mg/L

System: Staphylococcus aureus
Assay: In vitro antimicrobial activity against Staphylococcus aureus X400 strain
Type: functional

In order of falling MIC:
1. Nc1nc(/C(=N\OCCF)C(=O)N[C@@H]2C(=O)N3C(C(=O)[O-])=C(Sc4cccc[n+]4[O-])CC[C@H]23)cs1.[Na+]  128 mg/L
2. Cc1cnc(SC2=C(C(=O)[O-])N3C(=O)[C@@H](NC(=O)/C(=N/OCCF)c4csc(N)n4)[C@H]3CC2)s1.[Na+]  128 mg/L
3. Nc1nc(/C(=N\OCCF)C(=O)N[C@@H]2C(=O)N3C(C(=O)[O-])=C(Sc4nc(-c5ccncc5)cs4)CC[C@H]23)cs1.[Na+]  32 mg/L

System: Streptococcus pneumoniae
Assay: In vitro antimicrobial activity against Streptococcus pneumoniae PARK strain
Type: functional

Going from `Nc1nc(/C(=N\OCCF)C(=O)N[C@@H]2C(=O)N3C(C(=O)[O-])=C(Sc4cccc[n+]4[O-])CC[C@H]23)cs1.[Na+]` to `Cc1cnc(SC2=C(C(=O)[O-])N3C(=O)[C@@H](NC(=O)/C(=N/OCCF)c4csc(N)n4)[C@H]3CC2)s1.[Na+]`, the MIC falls from 0.15 mg/L to under 0.008 mg/L.

`Nc1nc(/C(=N\OCCF)C(=O)N[C@@H]2C(=O)N3C(C(=O)[O-])=C(Sc4nc(-c5ccncc5)cs4)CC[C@H]23)cs1.[Na+]` gave an MIC of under 0.008 mg/L.

System: Staphylococcus aureus
Assay: In vitro antimicrobial activity against Staphylococcus aureus X1.1 strain
Type: functional

In order of rising MIC:
1. Nc1nc(/C(=N\OCCF)C(=O)N[C@@H]2C(=O)N3C(C(=O)[O-])=C(Sc4nc(-c5ccncc5)cs4)CC[C@H]23)cs1.[Na+]  0.125 mg/L
2. Cc1cnc(SC2=C(C(=O)[O-])N3C(=O)[C@@H](NC(=O)/C(=N/OCCF)c4csc(N)n4)[C@H]3CC2)s1.[Na+]  0.5 mg/L
3. Nc1nc(/C(=N\OCCF)C(=O)N[C@@H]2C(=O)N3C(C(=O)[O-])=C(Sc4cccc[n+]4[O-])CC[C@H]23)cs1.[Na+]  2 mg/L
